# Assay results reported in US10864261B2, “Synthetic vaccines against Streptococcus pneumoniae serotype 2” (Max-Planck-Gesellschaft zur Förderung der Wissenschaften …, priority 2015, dated 2020).
# Tested on: synthetic oligosaccharides and native S. pneumoniae serotype 2 capsular polysaccharides printed on slides
# Settings: mice s.c., pooled sera
# Experimental: On day 14 and 28 mice were received a booster injection with the same amount of antigen emulsified with 1:1 (v/v) alum. […] Mice were bled submandibular weekly using sterile single-use blood lancet. Control mice received only PBS and PBS in alum. The antibody responses were measured in both sera by glycan microarray and ELISA.
# Preparation of microarrays slides: The CodeLink NHS activated glass slides (Surmodics) were spotted with synthetic glycans and native polysaccharides at two different concentration (100 μM and 200 μM) in printing buffer (50 mM sodium phosphate, pH 8.5) by using a S3 piezoelectric microarray printer (Scienion) equipped with a type 4 coated nozzle. The relative humidity of spotted chamber was constantly maintained at 65%. The spotted slides were incubated over night at room temperature in a humidifying chamber. […]
# Microarray binding assays: The printed slides were blocked with PBS-BSA (1%) for 1 h at room temperature and washed 3 times with PBS. […] Slides were incubated with a fluorescence-labeled goat anti-mouse secondary antibodies (Life Technologies) diluted in 1% BSA in PBS (w/v) in a humid chamber for 1 h at room temperature, washed three times with PBST, rinsed once with deionized water and dried by centrifugation (300×g, 5 min) prior to scanning with a GenePix 4300A microarray scanner (Molecular Devices, Sunnyvale, Calif., USA). […]
smiles,measurement,setting,value
"C[C@@H]1O[C@H](O[C@H]2[C@H](O)[C@@H](O)[C@H](O[C@@H]3[C@@H](O)[C@H](C)O[C@@H](O[C@@H]4[C@@H](O)[C@H](C)O[C@@H](OCCCCCN)[C@@H]4O)[C@@H]3O[C@H]3O[C@H](CO[C@H]4O[C@H](C(=O)O)[C@@H](O)[C@H](O)[C@H]4O)[C@@H](O)[C@H](O)[C@H]3O)O[C@@H]2CO)[C@H](O)[C@H](O)[C@H]1O [hexasaccharide 2, 5-amino pentyl β-L-rhamnopyranosyl-(1→4)-β-D-glucopyranosyl-(1→3)-α-L-{α-D-glucopyranosyl uronate-(1→6)-α-D-glucopyranosyl-(1→2)}rhamnopyranosyl-(1→3)-α-L-rhamnopyranoside]",antibody response specific to hexasaccharide 2 / core glycan structures (immunogenicity),"3 μg sugar per dose with alum 1:1, boosts day 14 and 28, anti-mouse IgG",immunogenic in mice
same,cross-reactivity of raised antibodies with other fragments of hexasaccharide 2 printed on the slides,3 μg sugar per dose with alum 1:1,induces cross-reactive antibodies
